Source: patent publication US11739120B2, “Water soluble salts of lipidated peptides and methods for preparing and using the same” (Bridge Biotherapeutics, Inc., priority 2018, dated 2023)
≈ marks a conversion by molar mass, not a printed value. Residues, ends and D or L forms follow the SMILES beside them. *: point of attachment. Palmitoyl = CCCCCCCCCCCCCCCC(=O)*

Key:
[1] = Solubility of amorphous, Form A and Form E of Compound I-1 in water (shaken at 25° C., HPLC); type: physicochemical; settings: for Final pH: mother liquor; for XRPD pattern (wet): residue of the suspension in water
Protocol: The solubility of amorphous, Form A or E of Compound I-1 in water was further studied. Specifically, about 250 mg Compound I-1 in amorphous, Forms A and E were each suspended in a 2 mL HPLC vial with 0.9 mL of water. Each suspension was then shaken at 25° C. under 1000 rpm. The suspensions were analyzed at 1 h and 24 h. In particular, at either the 1 h or 24 h time point, the slurries were centrifuged and analyzed by HPLC. The pH values of the mother liquors were measured, and the residues were characterized by XRPD.

[2] = Aqueous solubility of Compound I-1 in the presence of excipients; type: physicochemical; settings: 25° C.
Protocol: Specifically, about 50 mg of Compound I-1 was weighed into a 1.5-mL HPLC vial, and 0.2 mL of different media was then added to each vial. The mixtures were shaken at 25° C. under 700 rpm. After 24 hours of shaking, the slurries were centrifuged twice and analyzed. The supernatant was analyzed by HPLC.

[3] = Stabilities of amorphous Compound I-1 (ICH guideline, XRPD); type: physicochemical; settings: amorphous; 25±2° C./60±5% RH and 40±2° C./75±5% RH; ICH guideline
Protocol: Stabilities of amorphous Compound I-1 were also conducted according to ICH guideline.

[4] = test system: DSS induced colitis animal model; test: DSS induced colitis animal model; type: in vivo; settings: formulations containing Compound I-1
Excerpt: The compound of Formula I (e.g., Formula I-B or I-C, or any one of Compounds I-1 to I-10) described herein is useful for treating various diseases or disorders discussed herein. […] In addition, it was shown that effective concentration of the acid compounds can be retained in a targeted tissue (e.g., small intestinal tissues, large intestinal tissues, appendix tissues) for a sufficient time. […] Those skilled in the art would expect that the salts of Compound I-1-Acid, such as Compound I-1, be similarly efficacious.

[5] = Physical stability of Compound I-1 in meglumine solutions; type: physicochemical; settings: for Appearance: precipitation after (storage time) / Appearance: no precipitation until (storage time): vehicle Meglumine, 25° C.
Protocol: In contrast, an aqueous formulation with a concentration of Compound I-1 of 200 mg/mL, without meglumine, started forming precipitates after storing 1 day at 25° C.

[6] = Aqueous solubility of Compound I-1 in the presence of excipients; type: physicochemical; settings: approximate solubility by visual observation
[7] = Water solubility of Compound I-1-Acid (further investigation); type: physicochemical
[8] = test system: inflammatory bowel diseases, multiple sclerosis, and septicemia; settings: shown in U.S. application Ser. No. 15/205,853; cited from earlier work
[9] = Approximate solubility of Compound I-1-Acid in different solvents (manual dilution, visual observation); type: physicochemical
Protocol: The solubility test was conducted by manual dilution combined with visual observation. As shown below, Compound I-1-Acid has poor solubility (<1 mg/mL) in most organic solvents and water (Table 1).

[10] = Approximate solubility of Compound I-2 (amorphous) at room temperature; type: physicochemical
Protocol: The solubility of Compound I-2 (amorphous) at room temperature was tested using a method similar to those described in Examples 4 and 5. The solubility test results are described in Table 6.

[11] = Kinetic solubility of potassium salt Compound I-2 (further research); type: physicochemical; settings: water; 25° C.
[12] = Hygroscopicity by Dynamic Vapor Sorption (DVS); type: physicochemical
Protocol: A polymorph screening study on Compound I-1-Acid was also carried out, which identified Form 1. […] About 0.25% weight loss from 25° C. to 120° C. and about 0.42% weight loss from 120° C. to 150° C.
Compound I-2 can have different crystalline forms. Two different polymorphs, Forms A2 and B2 were identified. Form A2 can be prepared as follows. Specifically, the white solid of Compound I-2 obtained above was dissolved in 30 mL THF:water (95:5, v/v). […] The suspension was then allowed to be stirred at room temperature overnight. After which, the solid was filtered, washed with THF:water:MTBE=7.5:1:53 (25 mL*3) to remove excess KOH, and then dried under vacuum at 25° C. overnight to provide Form A2.

[13] = Crystalline stability of Form A2 of Compound I-2 on storage; type: physicochemical; settings: 25° C./92.5% RH, 40° C./75% RH, 60° C.; 25 days
[14] = water, 25° C., time point 1 hour
[15] = water, 25° C., time point 24 hours

`CCCCCCCCCCCCCCCC(=O)N1CCC[C@H]1C(=O)N1CCC[C@H]1C(=O)NCC(=O)N[C@@H](Cc1ccc(O)cc1)C(=O)[O-].[Na+]` [Compound I-1, sodium palmitoyl-L-prolyl-L-prolylglycyl-L-tyrosinate] (Palmitoyl-PPGY-OH) gave a solubility kinetic ([1]; water, 25° C.) of roughly 200000 µg/mL, a solubility at 24 h ([2]; water with Cremophor RH 40 1% (w/v), HPLC) of 231000 µg/mL and a solubility at 24 h ([2]; water with Cremophor RH 40 10% (w/v), HPLC) of 209000 µg/mL. It also gave a solubility at 24 h ([2]; water with Meglumine 1% (w/v), HPLC) of 190000 µg/mL, a solubility at 24 h ([2]; water with Meglumine 10% (w/v)) greater than 270000 µg/mL and a solubility at 24 h ([2]; water with TWEEN 80 1% (w/v), HPLC) of 215000 µg/mL. The solubility at 24 h ([2]; water with TWEEN 80 10% (w/v), HPLC) was 198000 µg/mL, the “stable for (storage time)” value [3] was no less than 6 months and the total colitis scores [4] was “statistically significant improvement”. The “physical stability of solution” value ([5]; 200 mg/mL in water with 3%, 4%, or 5% meglumine, stored at 25° C., 13 days) was “good physical stability”, the “physical stability of solution” value ([5]; stored at 5° C., 5 mg/mL solution formulation with meglumine (2-5%)) was “not physically stable” and the “Appearance: precipitation after (storage time)” value (shortened to “Appearance: precipitation”) ([5]; 2%, 200 mg/mL) was “Precipitation after 2 days”. The “Appearance: precipitation” value ([5]; 2%, 250 mg/mL) was “Precipitation after 1 day”, the “Appearance: no precipitation until (storage time)” value (shortened to “Appearance: no precipitation until”) ([5]; 3%, 200 mg/mL) was no less than 3 weeks and the “Appearance: no precipitation until” value ([5]; 4%, 200 mg/mL) was no less than 3 weeks. The “Appearance: no precipitation until” value ([5]; 5%, 200 mg/mL) was no less than 3 weeks, the “Appearance: precipitation” value ([5]; 5%, 250 mg/mL) was “Precipitation after 5 days” and the “Appearance: precipitation” value ([5]; 5%, 300 mg/mL) was “Precipitation after 3 days”. The solubility ([6]; water with HPMC E3 5% (w/v)) was less than 250000 µg/mL, the solubility ([6]; water with HPβCD 5% (w/v)) was less than 250000 µg/mL and the solubility ([6]; water with Meglumine 2% (w/v)) was greater than 250000 µg/mL. For the same compound, the solubility ([6]; water with Meglumine 5% (w/v)) was greater than 250000 µg/mL and the solubility ([6]; water with Meglumine:Cremophor RH 40 (1:1, w/w) 10% (w/v)) was greater than 250000 µg/mL.

For `CCCCCCCCCCCCCCCC(=O)N1CCC[C@H]1C(=O)N1CCC[C@H]1C(=O)NCC(=O)N[C@@H](Cc1ccc(O)cc1)C(=O)O` [Compound I-1-Acid] (Palmitoyl-PPGY-OH), the solubility [7] is given as less than 2 µg/mL, the “treating inflammatory bowel diseases, multiple sclerosis, and septicemia” value [8] is given as “effective” and the solubility ([9]; 1,4-Dioxane, room temperature) is given as less than 1000 µg/mL. It also gave a solubility ([9]; 1-butanol, room temperature) of less than 1000 µg/mL, a solubility ([9]; 2-Methyl Tetrahydrofuran, room temperature) of less than 1000 µg/mL and a solubility ([9]; ACN—H2O (1:1), room temperature) of less than 1000 µg/mL. For the same compound, the solubility ([9]; Acetone-H2O (1:2), room temperature) was less than 1000 µg/mL, the solubility ([9]; Acetone, room temperature) was less than 1000 µg/mL and the solubility ([9]; Acetonitrile, room temperature) was less than 1000 µg/mL. It also gave a solubility ([9]; Cyclohexane, room temperature) of less than 1000 µg/mL, a solubility ([9]; EtOH—H2O (1:1), room temperature) of less than 1000 µg/mL and a solubility ([9]; EtOH—H2O (3:1), room temperature) of less than 1000 µg/mL. The solubility ([9]; Ethanol, room temperature) was less than 1000 µg/mL, the solubility ([9]; Ethyl acetate, room temperature) was less than 1000 µg/mL and the solubility ([9]; Heptane, room temperature) was less than 1000 µg/mL. It also gave a solubility ([9]; Isopropyl acetate, room temperature) of less than 1000 µg/mL, a solubility ([9]; Isopropyl alcohol, room temperature) of less than 1000 µg/mL and a solubility ([9]; MeOH—H2O (1:1), room temperature) of less than 1000 µg/mL. It also gave a solubility ([9]; MeOH—H2O (3:1), room temperature) of less than 1000 µg/mL, a solubility ([9]; Methyl ethyl ketone, room temperature) of less than 1000 µg/mL and a solubility ([9]; Methyl isobutyl ketone, room temperature) of less than 1000 µg/mL. It also gave a solubility ([9]; Methyl t-butyl ether, room temperature) of less than 1000 µg/mL, a solubility ([9]; N-methyl pyrrolidone, room temperature) of 1000 to 5000 µg/mL (≈ 1490 to 7450 µM) and a solubility ([9]; Tetrahydrofuran, room temperature) of less than 1000 µg/mL. It also gave a solubility ([9]; Toluene, room temperature) of less than 1000 µg/mL, a solubility ([9]; Water, room temperature) of less than 1000 µg/mL and a solubility ([9]; most organic solvents and water, ambient laboratory temperature) of less than 1000 µg/mL.

For `CCCCCCCCCCCCCCCC(=O)N1CCC[C@H]1C(=O)N1CCC[C@H]1C(=O)NCC(=O)N[C@@H](Cc1ccc(O)cc1)C(=O)[O-].[K+]` [Compound I-2 (amorphous)] (Palmitoyl-PPGY-OH), the solubility ([10]; 1,4-Dioxane) was less than 1000 µg/mL, the solubility ([10]; 1-butanol) was 1000 to 5000 µg/mL and the solubility ([10]; 2-Methyl Tetrahydrofuran) was less than 1000 µg/mL. The solubility ([10]; Acetone) was less than 1000 µg/mL, the solubility ([10]; Acetone: H2O (97:3)) was less than 1000 µg/mL and the solubility ([10]; Acetonitrile) was less than 1000 µg/mL. For the same compound, the solubility ([10]; Acetonitrile:H2O (95:5)) was less than 1000 µg/mL, the solubility ([10]; Cyclohexane) was less than 1000 µg/mL and the solubility ([10]; DMF) was 50000 to 100000 µg/mL. The solubility ([10]; DMSO) was 50000 to 100000 µg/mL, the solubility ([10]; Ethanol) was 50000 to 100000 µg/mL and the solubility ([10]; Ethanol:H2O (90:10)) was 25000 to 50000 µg/mL. It also gave a solubility ([10]; Ethanol:H2O (95:5)) of 25000 to 50000 µg/mL, a solubility ([10]; Ethyl acetate) of less than 1000 µg/mL and a solubility ([10]; Heptane) of less than 1000 µg/mL. For the same compound, the solubility ([10]; Isopropyl acetate) was less than 1000 µg/mL, the solubility ([10]; Isopropyl alcohol) was 1000 to 5000 µg/mL and the solubility ([10]; Methanol) was greater than 100000 µg/mL. For the same compound, the solubility ([10]; Methanol:H2O (90:10)) was greater than 100000 µg/mL, the solubility ([10]; Methanol:H2O (95:5)) was greater than 100000 µg/mL and the solubility ([10]; Methyl ethyl ketone) was less than 1000 µg/mL. The solubility ([10]; Methyl isobutyl ketone) was less than 1000 µg/mL, the solubility ([10]; Methyl t-butyl ether) was less than 1000 µg/mL and the solubility ([10]; N-methyl pyrrolidone) was 50000 to 100000 µg/mL. For the same compound, the solubility ([10]; Tetrahydrofuran) was less than 1000 µg/mL, the solubility ([10]; Tetrahydrofuran:H2O (95:5)) was 50000 to 100000 µg/mL and the solubility ([10]; Toluene) was less than 1000 µg/mL. For the same compound, the solubility ([10]; Water) was greater than 100000 µg/mL.

`CCCCCCCCCCCCCCCC(=O)N1CCC[C@H]1C(=O)N1CCC[C@H]1C(=O)NCC(=O)N[C@@H](Cc1ccc(O)cc1)C(=O)[O-].[K+]` [Compound I-2] (Palmitoyl-PPGY-OH) showed a solubility kinetic [11] of 166000 to 200000 µg/mL.

With `CCCCCCCCCCCCCCCC(=O)N1CCC[C@H]1C(=O)N1CCC[C@H]1C(=O)NCC(=O)N[C@@H](Cc1ccc(O)cc1)C(=O)[O-].[K+]` [Form A2] (Palmitoyl-PPGY-OH) the “hygroscopicity (DVS)” value [12] was “hygroscopic”, the “water absorption (DVS isotherm)” value [12] was “about 8%” and the “crystalline stability on storage” value [13] was “stable”.

With `CCCCCCCCCCCCCCCC(=O)N1CCC[C@H]1C(=O)N1CCC[C@H]1C(=O)NCC(=O)N[C@@H](Cc1ccc(O)cc1)C(=O)[O-].[Na+]` [Form A] (Palmitoyl-PPGY-OH) the “Final pH” value [1, 14] was 8.91, the “Final pH” value [1, 15] was 8.70 and the “XRPD pattern (wet)” value ([1]; 25° C., time point 1 hour) was “A + D”. For the same compound, the “Solubility at 25° C.” value ([1]; water, time point 24 hours) was 208600 µg/mL.

In the case of `CCCCCCCCCCCCCCCC(=O)N1CCC[C@H]1C(=O)N1CCC[C@H]1C(=O)NCC(=O)N[C@@H](Cc1ccc(O)cc1)C(=O)[O-].[Na+]` [Form E] (Palmitoyl-PPGY-OH), the “Final pH” value [1, 14] is reported as 9.08, the “Final pH” value [1, 15] is reported as 8.70 and the “XRPD pattern (wet)” value ([1]; 25° C., time point 1 hour) is reported as “A + D”. For the same compound, the “Solubility at 25° C.” value ([1]; water, time point 24 hours) was 199400 µg/mL.
